# Measured values: patent publication US20090105245A1, “METHODS FOR TREATING MACULAR EDEMA AND OCULAR ANGIOGENESIS USING AN ANTI-INFLAMMATORY AGENT AND A RECEPTOR TYROSINE KINASE INHIBITOR” (priority 2006, published 2009)
# What was measured:
# Type in all cases: in vivo
# [1] = tested on: existing laser-induced choroidal neovascularization (CNV) in the mouse; test: Mouse laser-induced CNV, regression of existing CNV, intravitreal injection at 7 days post-laser; settings: single intravitreal injection, mouse (FIG. 4)
# Method: Methods. CNV was generated by laser-induced rupture of Bruch's membrane. Briefly, 4 to 5 week old male C57BL/6J mice were anesthetized using intraperitoneal administration of ketamine hydrochloride (100 mg/kg) and xylazine (5 mg/kg) and the pupils of both eyes dilated with topical ocular instillation of 1% tropicamide and 2.5% Mydfin®. One drop of topical cellulose (Gonioscopic®) was used to lubricate the cornea. A hand-held cover slip was applied to the cornea and used as a contact lens to aid visualization of the fundus. Three to four retinal burns were placed in randomly assigned eye (right or left eye for each mouse) using the Alcon 532 nm EyeLite laser with a slit lamp delivery system. The laser burns were used to generate a rupture in Bruch's membrane, which was indicated opthalmoscopically by the formation of a bubble under the retina. Only mice with laser burns that produced three bubbles per eye were included in the study. Burns were typically placed at the 3, 6, 9 or 12 o'clock positions in the posterior pole of the retina, avoiding the branch retinal arteries and veins. […]
# METHODS: CNV was generated by laser-induced rupture of Bruch's membrane as described above in Example 3. […] Choroidal flat mounts were analyzed as described above in Example 3.
# [2] = tested on: existing laser-induced choroidal neovascularization (CNV) in the mouse; test: Mouse laser-induced CNV, regression paradigm, oral gavage from day 7; settings: 3 mg/kg/day, oral from day 7
# [3] = tested on: laser-induced choroidal neovascularization (CNV) in the mouse; test: Mouse laser-induced CNV, prevention paradigm, oral gavage; settings: for inhibition of CNV: oral, prevention paradigm
# [4] = tested on: diabetes-induced retinal vascular permeability; test: STZ diabetic rat retinal vascular permeability (Evan's blue albumin permeation), oral gavage
# Method: METHODS: Diabetes was induced in male Long-Evans rats with 65 mg/kg streptozotocin (STZ) after an overnight fast. Upon confirmation of diabetes (blood glucose >250 mg/dl), treatment was initiated by oral gavage. Non-diabetic (NDM) and diabetic (DM) rats received oral gavage of either vehicle or RTK inhibitor at 1.5 or 5 mg/kg/d BID. After 2 weeks, jugular vein catheters were implanted 1 day prior to experimentation for the infusion of indicator dye. Retinal vascular permeability, RVP, was measured using Evan's blue albumin permeation (45 mg/kg) after a 2 hour circulation period.
# [5] = tested on: preretinal neovascularization (NV) in the rat OIR model; test: Rat OIR model, oral gavage
# Method: (§1) Immediately following euthanasia, retinas from all rat pups were harvested, fixed in 10% neutral buffered formalin for 24 hours, subjected to ADPase staining, and fixed onto slides as whole mounts. Digital images were acquired from each retinal flat mount that was adequately prepared. Computerized image analysis was used to obtain a NV clockhour score from each readable sample. Each clockhour out of 12 total per retina was assessed for the presence or absence of preretinal NV. Statistical comparisons using median scores for NV clockhours from each treatment group were utilized in nonparametric analyses. Each noninjected pup represented one NV score by taking the average value of both eyes and was used in comparisons against each dosage group. Because the pups were randomly assigned and no difference was observed between oxygen-exposed control pups from all litters, the NV scores were combined for all treatment groups. P≦0.05 was considered statistically significant.
# METHODS: Pregnant Sprague-Dawley rats were received at 14 days gestation and subsequently gave birth on Day 22±1 of gestation. Immediately following parturition, pups were pooled and randomized into separate litters (n=17 pups/litter), placed into separate shoebox cages inside oxygen delivery chamber, and subjected to an oxygen-exposure profile from Day 0 to Day 14 postpartum. Litters were then placed into room air from Day 14/0 through Day 14/6 (days 14-20 postpartum). Additionally on Day 14/0, each pup was randomly assigned as oxygen-exposed controls, vehicle treated, or drug-treated at 1.5, 5, 10 mg/kg, p.o., BID. At Day 14/6 (20 days postpartum), all animals in both studies were euthanized and retina whole mounts were prepared as described in Example 1 above.
# [6] = tested on: preretinal neovascularization (NV) in the rat model of oxygen-induced retinopathy; test: Rat model of oxygen-induced retinopathy (OIR), single intravitreal injection
# Text: METHODS: Pregnant Sprague-Dawley rats were received at 14 days gestation and subsequently gave birth on Day 22±1 of gestation. Immediately following parturition, pups were pooled and randomized into separate litters (n=17 pups/litter), placed into separate shoebox cages inside oxygen delivery chamber, and subjected to an oxygen-exposure profile from Day 0-14 postpartum. Litters were then placed into room air from Day 14/0 through Day 14/6 (days 14-20 postpartum). Additionally on Day 14/0, each pup was randomly assigned as an oxygen-exposed control or into various treatment groups. For those randomized into an injection treatment group: one eye received a 5 μl intravitreal injection of 0.1%, 0.3%, 0.6%, or 1% RTKi and the contralateral eye received a 5 μl intravitreal injection of vehicle. At Day 14/6 (20 days postpartum), all animals in both studies were euthanized.
# as §1
smiles,measurement,setting,value
"Cc1ccc(F)c(NC(=O)Nc2ccc(-c3cccc4[nH]nc(N)c34)cc2)c1 [Compound 86, N-[4-[3-amino-1H-indazol-4-yl]phenyl]-N′-(2-fluoro-5-methylphenyl)urea]",regression of existing laser-induced CNV,[1],induces regression of existing laser-induced choroidal neovascularization (CNV)
same,regression of existing CNV,[2],did not show a significant regression of existing CNV
same,inhibition of CNV,[3]; 3 mg/kg/day,no significant inhibition
same,inhibition of CNV,[3]; 20 mg/kg/d,complete inhibition of CNV
same,inhibition of laser-induced CNV,"[3]; oral gavage, mouse (FIG. 6)",inhibits laser-induced choroidal neovascularization (CNV)
same,blood glucose levels and body weights,[4]; DM control vs DM treatment groups,not different between DM control and DM treatment groups
same,"tolerability, systemic or ERG side effects","[4]; oral RTKi, NDM and DM groups",well tolerated by both NDM and DM groups with no observed systemic or ERG side effects
same,decrease in NV,[5]; 3 mg/kg/day p.o.,did not have a significant decrease in NV
same,inhibition of preretinal NV vs vehicle-treated pups,[5]; 10 mg/kg/day p.o.,significant inhibition of preretinal NV
same,inhibition of preretinal NV,[5]; 20 mg/kg/day p.o.,complete inhibition of preretinal NV
same,prevention of preretinal neovascularization (NV),"[5]; oral gavage, rat OIR (FIG. 2)",prevents preretinal neoavascularization (NV)
same,efficacy against preretinal NV,[6]; 0.1% treated eyes,Efficacy was not observed
same,inhibition of preretinal NV vs vehicle-injected and control noninjected eyes,[6]; 0.3-1% RTKi,significant inhibition of preretinal NV
same,inhibition of preretinal neovascularization (NV),"[6]; single intravitreal injection, rat OIR (FIG. 1)",inhibits preretinal neovascularization (NV)
